Assay [1] concerns L3.6 pancreatic cancer cells. The assay can be described thus: Cell viability / cell death (MTT) in L3.6 pancreatic cancer cells. The class given is cell-based, human. Particulars: for cell death of L3.6 cells: 2.5 μg/ml C6-ceramide, 1.5 μg/ml taxol. The method, then:
L3.6 pancreatic cancer cells, cultured either in the basic DMEM medium or with 10% FBS, were treated with the indicated doses of taxol in the presence or absence of C6-ceramide (10 μg/ml) for 48 hours and cell viability was detected by MTT assay (FIGS. 1A-1B). L3.6 cells, cultured either in basic DMEM medium or with 10% FBS, were treated with the indicated dose of C6-ceramide in the presence or absence of taxol (1.5 μg/ml) for 48 hours and cell viability was detected by MTT assay (FIGS. 1C-1D). Mitomycin C (10 μg/ml) was always present in the media to prevent cell proliferation from occurring. The data represents the mean±SD of at least triplicate experiments. *P<0.05 versus group without C6-ceramide presents (FIGS. 1A-1B). **P<0.05 versus group without taxol presents (FIGS. 1C-1D).
FIGS. 3A-3H show synergistic anti-tumor effects of C6-ceramide and gemcitabine in vivo and in vitro. SCID/Beige/Taconic nude male mice (22-25 g; 6-8 weeks old) were ear tagged and randomized into 4 different groups (Control, Ceramide, gemcitabine, Ceramide+gemcitabine) combining 5 mice each prior to inoculation subcutaneous (s.c.) with 2×10^6 L3.6 cells in a 0.1 ml volume into the internal surface of the right thigh. Treatment was started 4 days after L3.6 cell injection with thrice weekly (3×/wk) intraperitoneal (i.p.) injections of gemcitabine (two doses: 5.0 and 10.0 mg/ml) with or without C6-ceramide (10 mg/ml) for 2 weeks. Mouse survival (FIGS. 3A, 3B, and 3E) and tumor volume (in cm^3; FIGS. 3C and 3D) were recorded (FIG. 3E). Pancreatic cancer cell lines, including L3.6 cells (FIG. 3F), Panc-1 cells (FIG. 3G) and MIA-PaCa2 cells (MIA, FIG. 3H) were cultured in basic DMEM medium and were treated with gemcitabine (Gem, 1 μg/ml). Mitomycin C was always present in the media to prevent cell proliferation from occurring. The data represent the mean±SD of at least triplicate experiments. *P<0.05 versus group without C6-ceramide presents. The experiments were repeated at least three times and similar results were observed.
(§1) Pancreatic cancer cell lines L3.6 cells were left untreated or treated with gemcitabine (Gem, 1 μg/ml) or taxol (1.5 μg/ml) in the presence or absence of C6-ceramide (10 μg/ml) for 2, 4 and 6 hours, AKT/mTORC1 and ERK activation were detected by Western Blot using indicated antibodies (FIGS. 5A and 5C). p-AKT (S473) and p-ERK at 4 hour time intervals for each treatment quantified (FIGS. 5B and 5D). L3.6 cells were pretreated with various inhibitors including PI3K/AKT inhibitor LY 294002 (LY, 1 μM), mTORC1 inhibitor rapamycin (100 nM), MEK/ERK inhibitor U0126 (1 μg/ml) or gemcitabine (1 μg/ml) for 48 hours, cell death was detected 48 hours later (FIG. 5E). The effects of the various inhibitors described above on AKT/mTORC1 and ERK activation were also detected by Western Blots using commercial available antibodies (FIG. 5F). *P<0.05 versus group without C6-ceramide presents. The experiments were repeated at least three times and similar results were observed.
Cell viability was measured by the 3-[4m5-dimethylthylthiazol-2-y]-2.5 diphenyltetrazolium bromide (MTT) method, as described in Cao et al. (2009) Sci. Signal, 2:RA17. Briefly, the cells were collected and seeded in 96-well plate at a density of 2×10^5 cells/cm^2. Different seeding densities were optimized at the beginning of the experiments. After overnight incubation cells were exposed to fresh medium containing indicated reagents at 37° C. After incubation for different time periods, 20 ul of MTT tetrazolium (Sigma, St. Louis, Mo.) salt dissolved in Hank's balanced solution at a concentration of 5 mg/ml was added to each well and incubated in a CO2 incubator for an additional 4 hours. The medium was subsequently aspirated from each well and 150 ul of DMSO (Sigma, St. Louis, Mo.) was added to dissolve formazan crystals and the absorbance of each well was obtained using a Dynatech MR5000 plate reader at a test wavelength of 490 nm with a reference wavelength of 630 nm. […]

Another assay deals with AKT/mTORC1. The assay can be described thus: Western Blot of AKT/mTORC1 activation in L3.6 cells. The class given is cell-based. To be noted: for PI3K/AKT/mTOR activation: Taxol alone. As for the experimental part: as §1, with “5E).” for “5E). The effects of the various inhibitors described above on AKT/mTORC1 and ERK activation were also detected by Western Blots using commercial available antibodies (FIG. 5F). *P<0.05 versus group without C6-ceramide presents. The experiments were repeated at least three times and similar results were observed.”
As described in Cao et al. (2009) Sci. Signal, 2:RA17, aliquots of 30-40 μg of protein from each sample (treated as indicated in the legends) were separated by 10% SDS-polyacrylamide gel electrophoresis (SDS-PAGE) and transferred onto a polyvinylidene difluoride (PVDF) membrane (Millipore, Bedford, Mass.). After blocking with 10% instant nonfat dry milk for 1 hour, membranes were incubated with specific antibodies overnight at 4° C. followed by incubation with secondary antibodies (HRP-conjugated anti-rabbit or anti-mouse IgG at the appropriate dilutions) for 60 minutes to 1 hour at room temperature. Antibody binding was detected with the enhanced chemiluminescence (ECL) detection system (Amersham Biosciences, Piscataway, N.J.).

For another assay, the system named is Gab1. The assay can be described thus: Gab1 activation in wildtype and Gab1 knockout MEFs. Particulars: wildtype vs Gab1 knockout MEFs. The format is cell-based. The source says:
One of the most studied scaffold proteins for AKT activation is Gab1. Physical association between p85 and Gab1 is crucial in mediating the PI3K/AKT signaling pathway induced by a variety of stimuli. […] It is believed that that Gab1 is a key adaptor for taxol and gemcitabine induced PI3K/AKT/mTOR activation and chemoresistance response. To confirm this rationale, wildtype and Gab1 knockout MEFs and Gab1 siRNA can be used to test taxol and gemcitabine induced PI3K/AKT/mTOR and cell death. Interaction between Gab1 and p85 after Taxol and Gemcitabine treatment can also be tested in L3.6 cells.

Assay [2] deals with L3.6 pancreatic cancer cells. Description: Cell viability / cell death (MTT) in L3.6 pancreatic cancer cells. Particulars: gemcitabine 1.5 μg/ml. The format is cell-based, human.

Results on two compounds are retold here after US9974760B2, “Compositions and methods for treating cancer” (Chemo-Enhanced LLC, priority 2011, dated 2018).

Molecules are shown by their SMILES.

For `CC(=O)O[C@H]1C(=O)[C@@]2(C)[C@H]([C@H](OC(=O)c3ccccc3)[C@]3(O)C[C@H](OC(=O)[C@H](O)[C@@H](NC(=O)c4ccccc4)c4ccccc4)C(C)=C1C3(C)C)[C@]1(OC(C)=O)CO[C@@H]1C[C@@H]2O` [paclitaxel], the L3.6 cell death result is reported as “less than 5%” in assay [1] (basic DMEM medium, MTT, 48 hours, paclitaxel 1.5 μg/ml alone or combined with C6-ceramide) and “neither taxol or C6-ceramide alone had any meaningful effects” in assay [1] (cultured in 10% FBS). Besides, the “cell death of L3.6 cells” value in assay [1] (cultured in 10% FBS) is “neither of these two alone had any measurable effect”. Also, the PI3K/AKT/mTOR activation entry was “no effect” in the assay with AKT/mTORC1 and “strongly induce” in the assay with AKT/mTORC1 (listed as Taxol). In addition, the “effect on C6-ceramide induced AKT de-phosphorylation or inhibition” value in the assay on AKT/mTORC1 (added to C6-ceramide) is reported as “dramatically enhanced”. Further, in the assay with Gab1, the Gab1 activation result is “induces Gab1 activation in wildtype but not Gab1 knockout MEFs”.

As to `CCCCCCCCCCCCC/C=C/[C@@H](O)[C@H](CO)NC(=O)CCCCC` [C6-ceramide, N-hexanoyl-D-sphingosine], the sensitization to cetuximab result in assay [1] (L3.6 cells) was “markedly sensitized”. Besides, the “enhancement of paclitaxel induced cell death” value in assay [1] (L3.6 cells, dose dependent manner) is recorded as “dramatically enhanced”. Also, the “L3.6 cell death, agent alone” value in assay [1] (basic DMEM medium, MTT) is reported as “limited effects”. For the same compound, in assay [1] (cultured in 10% FBS), the L3.6 cell death result is recorded as “neither taxol or C6-ceramide alone had any meaningful effects” and the “cell death of L3.6 cells” value was “neither of these two alone had any measurable effect”. Moreover, in the assay with AKT/mTORC1 (C6-ceramide added to taxol), the “effect on taxol induced pro-survival PI3K/AKT/mTOR pathway” value is given as “dramatically reduces”. For the same compound, the cancer cell death result in assay [2] is listed as “moderate effect”.
